What was measured:
[1] = target: T1, Serine/threonine-protein kinase DCLK3 (Homo sapiens) (UniProt Q9C098); assay: Selectivity interaction (KinomeScan (DiscoverX)) EUB0000229b DCLK3; settings: at 10 µM
T1 sequence (whole entry): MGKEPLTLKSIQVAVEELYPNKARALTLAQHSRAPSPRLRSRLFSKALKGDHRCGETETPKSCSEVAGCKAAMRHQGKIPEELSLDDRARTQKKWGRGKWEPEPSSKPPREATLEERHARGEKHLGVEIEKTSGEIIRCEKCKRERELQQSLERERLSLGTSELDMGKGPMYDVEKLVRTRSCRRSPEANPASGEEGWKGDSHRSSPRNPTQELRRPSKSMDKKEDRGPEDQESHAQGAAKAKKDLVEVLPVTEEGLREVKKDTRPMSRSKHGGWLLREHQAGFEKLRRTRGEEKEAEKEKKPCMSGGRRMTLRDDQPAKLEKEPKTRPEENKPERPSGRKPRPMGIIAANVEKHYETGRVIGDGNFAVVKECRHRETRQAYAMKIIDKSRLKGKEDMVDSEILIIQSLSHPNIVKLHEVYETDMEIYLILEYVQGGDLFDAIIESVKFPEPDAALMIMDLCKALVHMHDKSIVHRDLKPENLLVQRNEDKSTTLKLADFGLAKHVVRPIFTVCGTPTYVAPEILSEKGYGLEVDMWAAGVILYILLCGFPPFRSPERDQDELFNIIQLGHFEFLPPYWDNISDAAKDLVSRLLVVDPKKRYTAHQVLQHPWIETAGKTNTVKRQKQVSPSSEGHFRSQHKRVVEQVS

[2] = target: Phosphatidylinositol 4-phosphate 5-kinase type-1 gamma (Homo sapiens) (UniProt O60331); assay: Selectivity interaction (KinomeScan (DiscoverX)) EUB0000092b PIP5K1C; settings: at 10 µM
Chain of Phosphatidylinositol 4-phosphate 5-kinase type-1 gamma (Homo sapiens) (O60331 whole entry): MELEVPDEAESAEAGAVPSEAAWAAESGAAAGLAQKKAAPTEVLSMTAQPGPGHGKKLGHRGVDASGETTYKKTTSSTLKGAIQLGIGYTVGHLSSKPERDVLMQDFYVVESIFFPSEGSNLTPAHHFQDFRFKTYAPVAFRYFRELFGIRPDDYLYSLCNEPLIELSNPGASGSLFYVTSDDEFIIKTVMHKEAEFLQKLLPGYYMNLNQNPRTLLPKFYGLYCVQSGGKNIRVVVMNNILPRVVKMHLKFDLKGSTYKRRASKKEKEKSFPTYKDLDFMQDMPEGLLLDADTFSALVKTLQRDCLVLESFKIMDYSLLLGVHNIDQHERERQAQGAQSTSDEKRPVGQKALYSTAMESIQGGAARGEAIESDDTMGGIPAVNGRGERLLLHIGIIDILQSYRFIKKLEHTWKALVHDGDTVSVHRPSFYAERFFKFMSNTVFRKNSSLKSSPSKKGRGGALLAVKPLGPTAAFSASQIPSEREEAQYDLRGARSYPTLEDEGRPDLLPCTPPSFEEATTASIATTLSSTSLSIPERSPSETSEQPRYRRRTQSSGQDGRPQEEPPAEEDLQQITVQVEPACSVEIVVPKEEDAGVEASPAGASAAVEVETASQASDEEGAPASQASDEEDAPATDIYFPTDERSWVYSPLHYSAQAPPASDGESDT

[3] = target: Tyrosine-protein kinase BTK (Homo sapiens, UniProt Q06187); assay: Selectivity interaction (KinomeScan (DiscoverX)) EUB0000655a BTK; settings: at 10 µM
Chain of Tyrosine-protein kinase BTK (Q06187 whole entry): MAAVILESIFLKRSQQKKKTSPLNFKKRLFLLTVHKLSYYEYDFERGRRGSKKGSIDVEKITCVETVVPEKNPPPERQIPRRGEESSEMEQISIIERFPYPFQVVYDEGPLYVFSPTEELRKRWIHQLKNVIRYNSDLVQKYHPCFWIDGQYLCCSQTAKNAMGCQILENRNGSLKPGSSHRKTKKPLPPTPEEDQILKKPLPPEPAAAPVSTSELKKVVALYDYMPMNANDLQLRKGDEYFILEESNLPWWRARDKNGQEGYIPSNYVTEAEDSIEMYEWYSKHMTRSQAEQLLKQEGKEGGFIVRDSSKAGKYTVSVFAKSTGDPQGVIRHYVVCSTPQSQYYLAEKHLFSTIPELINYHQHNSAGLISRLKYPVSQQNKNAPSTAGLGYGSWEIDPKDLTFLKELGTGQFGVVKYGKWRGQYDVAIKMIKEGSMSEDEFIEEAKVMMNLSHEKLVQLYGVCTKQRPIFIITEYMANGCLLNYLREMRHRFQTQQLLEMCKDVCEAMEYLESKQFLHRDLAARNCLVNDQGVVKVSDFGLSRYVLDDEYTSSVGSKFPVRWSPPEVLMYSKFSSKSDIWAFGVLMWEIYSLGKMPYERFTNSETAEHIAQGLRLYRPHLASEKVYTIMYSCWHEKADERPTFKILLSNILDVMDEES

[4] = target: Serine/threonine-protein kinase B-raf (Homo sapiens) (UniProt P15056); assay: Selectivity interaction (Kinase panel (DSF assay)) EUB0001559a BRAF
[5] = target: Mitogen-activated protein kinase 10 (Homo sapiens, UniProt P53779); assay: Selectivity interaction (KinomeScan (DiscoverX)) EUB0001079a MAPK10; settings: at 1 µM
[6] = target: T2, Serine/threonine-protein kinase D2 (Homo sapiens) (UniProt Q9BZL6); assay: Selectivity interaction (Millipore kinase profiler) EUB0000124b PRKD2; settings: at 10 µM
T2 sequence (whole entry): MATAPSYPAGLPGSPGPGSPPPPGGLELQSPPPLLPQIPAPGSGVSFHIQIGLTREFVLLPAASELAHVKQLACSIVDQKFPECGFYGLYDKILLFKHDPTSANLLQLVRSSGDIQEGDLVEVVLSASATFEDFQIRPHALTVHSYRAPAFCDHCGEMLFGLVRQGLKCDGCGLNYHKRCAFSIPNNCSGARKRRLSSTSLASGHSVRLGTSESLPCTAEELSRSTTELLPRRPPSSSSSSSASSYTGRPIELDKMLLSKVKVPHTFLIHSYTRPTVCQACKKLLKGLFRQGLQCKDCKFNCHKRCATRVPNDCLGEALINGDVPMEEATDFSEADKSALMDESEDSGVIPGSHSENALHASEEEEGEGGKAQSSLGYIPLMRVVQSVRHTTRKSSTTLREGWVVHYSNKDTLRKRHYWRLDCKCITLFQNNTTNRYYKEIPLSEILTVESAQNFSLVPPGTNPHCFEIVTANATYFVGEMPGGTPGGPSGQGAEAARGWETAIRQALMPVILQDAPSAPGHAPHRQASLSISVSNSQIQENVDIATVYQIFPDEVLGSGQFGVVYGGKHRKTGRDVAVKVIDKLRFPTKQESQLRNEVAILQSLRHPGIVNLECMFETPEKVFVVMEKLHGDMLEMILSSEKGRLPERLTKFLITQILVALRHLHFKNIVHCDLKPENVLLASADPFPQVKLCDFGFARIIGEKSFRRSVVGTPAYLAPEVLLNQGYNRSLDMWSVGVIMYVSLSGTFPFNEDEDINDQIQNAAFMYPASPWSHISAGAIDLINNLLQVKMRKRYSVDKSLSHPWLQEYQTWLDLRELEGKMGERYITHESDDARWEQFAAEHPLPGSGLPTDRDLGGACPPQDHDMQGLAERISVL

[7] = target: Mitogen-activated protein kinase kinase kinase 11 (Homo sapiens) (UniProt Q16584); settings: at 10 µM
Chain of Mitogen-activated protein kinase kinase kinase 11 (Homo sapiens) (Q16584 whole entry, looked up): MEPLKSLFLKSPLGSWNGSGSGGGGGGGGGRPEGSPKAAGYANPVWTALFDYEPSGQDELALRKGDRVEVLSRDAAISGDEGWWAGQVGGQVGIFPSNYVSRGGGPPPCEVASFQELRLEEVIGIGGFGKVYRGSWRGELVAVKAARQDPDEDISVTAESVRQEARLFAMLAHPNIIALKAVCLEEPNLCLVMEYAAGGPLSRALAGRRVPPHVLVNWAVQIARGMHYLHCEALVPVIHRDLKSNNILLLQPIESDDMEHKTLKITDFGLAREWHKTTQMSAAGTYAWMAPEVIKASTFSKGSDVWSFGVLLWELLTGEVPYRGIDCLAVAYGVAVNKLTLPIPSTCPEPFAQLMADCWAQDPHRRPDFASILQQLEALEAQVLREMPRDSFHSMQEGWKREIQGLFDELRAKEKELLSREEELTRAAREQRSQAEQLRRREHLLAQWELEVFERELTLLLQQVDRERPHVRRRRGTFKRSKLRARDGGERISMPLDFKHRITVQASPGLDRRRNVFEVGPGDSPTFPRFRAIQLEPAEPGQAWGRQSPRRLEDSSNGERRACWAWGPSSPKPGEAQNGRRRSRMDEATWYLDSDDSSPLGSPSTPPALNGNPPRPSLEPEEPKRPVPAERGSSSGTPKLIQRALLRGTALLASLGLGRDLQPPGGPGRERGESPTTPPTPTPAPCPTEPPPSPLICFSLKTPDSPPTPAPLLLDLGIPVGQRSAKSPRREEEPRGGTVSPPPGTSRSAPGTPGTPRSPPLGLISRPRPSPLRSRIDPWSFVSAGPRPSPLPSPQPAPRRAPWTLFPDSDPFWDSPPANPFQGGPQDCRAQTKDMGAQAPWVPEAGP

[8] = target: T3, Mitogen-activated protein kinase 12 (Homo sapiens) (UniProt P53778); assay: Selectivity interaction (Kinase panel (Z-LYTE Assay)) EUB0001632a MAPK12; settings: at 10 µM
T3 sequence (whole entry): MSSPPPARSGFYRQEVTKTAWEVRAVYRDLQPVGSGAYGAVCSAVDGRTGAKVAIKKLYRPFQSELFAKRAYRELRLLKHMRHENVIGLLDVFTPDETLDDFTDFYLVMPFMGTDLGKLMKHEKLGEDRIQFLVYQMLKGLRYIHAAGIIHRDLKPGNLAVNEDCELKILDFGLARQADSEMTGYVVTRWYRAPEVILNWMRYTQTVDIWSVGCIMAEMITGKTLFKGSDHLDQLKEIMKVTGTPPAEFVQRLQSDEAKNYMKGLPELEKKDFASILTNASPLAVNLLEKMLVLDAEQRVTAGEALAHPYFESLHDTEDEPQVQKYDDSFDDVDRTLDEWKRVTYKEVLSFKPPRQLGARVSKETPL

[9] = target: Bone morphogenetic protein receptor type-1A (Homo sapiens, UniProt P36894); assay: Selectivity interaction (KinomeScan (DiscoverX)) EUB0000607a BMPR1A; settings: at 10 µM
Chain of Bone morphogenetic protein receptor type-1A (P36894 whole entry): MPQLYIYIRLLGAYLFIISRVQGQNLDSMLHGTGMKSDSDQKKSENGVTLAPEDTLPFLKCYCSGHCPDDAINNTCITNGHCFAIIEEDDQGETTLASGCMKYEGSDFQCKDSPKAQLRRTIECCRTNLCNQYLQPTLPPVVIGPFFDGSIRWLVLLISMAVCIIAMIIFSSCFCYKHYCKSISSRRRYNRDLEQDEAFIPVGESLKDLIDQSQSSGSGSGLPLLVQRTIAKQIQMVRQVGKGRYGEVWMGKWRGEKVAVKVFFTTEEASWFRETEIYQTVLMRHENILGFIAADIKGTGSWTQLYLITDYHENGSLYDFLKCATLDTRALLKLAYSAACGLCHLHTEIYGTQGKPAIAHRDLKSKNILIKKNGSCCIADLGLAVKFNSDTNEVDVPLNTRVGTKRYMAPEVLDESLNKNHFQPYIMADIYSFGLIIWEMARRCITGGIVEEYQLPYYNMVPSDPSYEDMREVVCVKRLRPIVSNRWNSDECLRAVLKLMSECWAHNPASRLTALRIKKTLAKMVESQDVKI

[10] = target: Mitogen-activated protein kinase 1 (Homo sapiens, UniProt P28482); assay: Selectivity interaction (KinomeScan (DiscoverX)) EUB0000607a MAPK1; settings: at 10 µM
Chain of Mitogen-activated protein kinase 1 (P28482 whole entry): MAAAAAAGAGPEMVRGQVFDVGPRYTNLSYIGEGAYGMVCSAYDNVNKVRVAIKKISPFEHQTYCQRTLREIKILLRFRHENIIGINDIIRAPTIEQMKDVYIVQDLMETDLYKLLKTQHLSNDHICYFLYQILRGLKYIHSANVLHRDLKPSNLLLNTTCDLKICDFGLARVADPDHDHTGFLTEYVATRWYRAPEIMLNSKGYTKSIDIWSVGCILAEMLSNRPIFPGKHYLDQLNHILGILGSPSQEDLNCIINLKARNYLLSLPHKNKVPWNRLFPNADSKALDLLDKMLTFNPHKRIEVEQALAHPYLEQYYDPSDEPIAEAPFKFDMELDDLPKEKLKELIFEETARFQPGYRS

[11] = target: Serine/threonine-protein kinase Chk2 (Homo sapiens) (UniProt O96017); assay: Selectivity interaction (KinomeScan (DiscoverX)) EUB0001049a CHEK2; settings: at 1 µM
Chain of Serine/threonine-protein kinase Chk2 (Homo sapiens) (O96017 whole entry): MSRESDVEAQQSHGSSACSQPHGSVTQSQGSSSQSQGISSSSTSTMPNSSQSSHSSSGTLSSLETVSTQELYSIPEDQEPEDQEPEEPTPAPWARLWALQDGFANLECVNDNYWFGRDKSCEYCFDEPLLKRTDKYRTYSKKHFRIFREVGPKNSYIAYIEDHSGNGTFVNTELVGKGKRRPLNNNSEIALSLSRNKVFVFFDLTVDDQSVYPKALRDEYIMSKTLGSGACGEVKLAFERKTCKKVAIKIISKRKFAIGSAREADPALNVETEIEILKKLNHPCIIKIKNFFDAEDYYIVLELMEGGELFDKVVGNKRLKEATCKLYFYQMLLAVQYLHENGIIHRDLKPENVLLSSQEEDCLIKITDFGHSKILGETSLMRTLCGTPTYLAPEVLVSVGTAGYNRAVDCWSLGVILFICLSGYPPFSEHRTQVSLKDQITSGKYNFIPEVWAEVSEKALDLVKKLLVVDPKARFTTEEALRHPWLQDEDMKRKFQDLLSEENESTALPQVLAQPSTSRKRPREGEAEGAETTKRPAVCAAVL

[12] = test system: Fibroblast growth factor receptor 3 (Homo sapiens), P22607 [G697C]; assay: (§1) Selectivity interaction (KinomeScan (DiscoverX)) EUB0000595a FGFR3; settings: at 10 µM
Chain of Fibroblast growth factor receptor 3 (Homo sapiens), P22607 [G697C] (P22607 whole entry G697C): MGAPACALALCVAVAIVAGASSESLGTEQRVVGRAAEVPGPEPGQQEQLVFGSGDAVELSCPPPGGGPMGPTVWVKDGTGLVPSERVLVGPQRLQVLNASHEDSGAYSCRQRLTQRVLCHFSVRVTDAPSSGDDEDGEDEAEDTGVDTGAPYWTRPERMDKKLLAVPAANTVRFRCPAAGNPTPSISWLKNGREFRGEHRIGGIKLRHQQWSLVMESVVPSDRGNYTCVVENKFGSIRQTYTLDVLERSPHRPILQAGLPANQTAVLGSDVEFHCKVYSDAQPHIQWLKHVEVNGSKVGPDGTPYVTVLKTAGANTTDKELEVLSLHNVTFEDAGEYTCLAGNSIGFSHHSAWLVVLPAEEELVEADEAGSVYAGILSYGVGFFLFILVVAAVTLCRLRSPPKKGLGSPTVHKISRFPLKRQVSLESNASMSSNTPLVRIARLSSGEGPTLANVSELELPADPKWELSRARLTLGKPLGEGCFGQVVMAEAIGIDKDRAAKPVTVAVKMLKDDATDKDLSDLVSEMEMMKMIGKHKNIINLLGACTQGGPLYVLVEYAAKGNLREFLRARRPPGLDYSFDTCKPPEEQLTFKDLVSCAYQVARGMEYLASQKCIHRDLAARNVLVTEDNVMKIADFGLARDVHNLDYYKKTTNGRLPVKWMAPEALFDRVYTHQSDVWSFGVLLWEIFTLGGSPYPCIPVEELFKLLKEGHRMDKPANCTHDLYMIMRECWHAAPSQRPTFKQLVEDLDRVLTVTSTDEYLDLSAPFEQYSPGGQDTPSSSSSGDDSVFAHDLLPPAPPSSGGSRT

[13] = target: Fibroblast growth factor receptor 3 (Homo sapiens, UniProt P22607); assay: as §1; settings: at 10 µM
[14] = target: Calcium/calmodulin-dependent protein kinase type II subunit alpha (Homo sapiens, UniProt Q9UQM7); assay: Selectivity interaction (KinomeScan (DiscoverX)) EUB0000045b CAMK2A
Chain of Calcium/calmodulin-dependent protein kinase type II subunit alpha (Q9UQM7 whole entry): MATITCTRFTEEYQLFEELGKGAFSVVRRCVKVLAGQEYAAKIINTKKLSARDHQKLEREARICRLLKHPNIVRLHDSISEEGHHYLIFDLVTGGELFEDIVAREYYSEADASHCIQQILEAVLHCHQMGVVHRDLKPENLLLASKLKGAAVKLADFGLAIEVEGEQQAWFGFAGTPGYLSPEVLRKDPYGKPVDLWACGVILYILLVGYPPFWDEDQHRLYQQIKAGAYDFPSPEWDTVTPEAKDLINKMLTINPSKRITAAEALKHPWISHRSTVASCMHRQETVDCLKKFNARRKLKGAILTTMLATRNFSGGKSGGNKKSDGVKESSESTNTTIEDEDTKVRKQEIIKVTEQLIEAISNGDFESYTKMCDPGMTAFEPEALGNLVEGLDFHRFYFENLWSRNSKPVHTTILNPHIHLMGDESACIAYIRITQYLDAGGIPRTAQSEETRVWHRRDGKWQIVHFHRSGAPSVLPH

[15] = target: Sphingosine kinase 1 (Homo sapiens) (UniProt Q9NYA1); settings: at 1 µM

## COc1cc(N(C)c2ccnc3ccc(C(F)(F)F)cc23)cc(OC)c1OC
[1]
  % binding: 97%

## CCC(=O)N1CCN(c2ccc(-n3c(=O)ccc4cnc5ccc(-c6cnc7ccccc7c6)cc5c43)cc2C(F)(F)F)CC1
[2]
  % of control: 80%

## CN(C)CCOc1ccc(-c2nc(-c3ccncc3)c(-c3ccc4c(c3)CC/C4=N\O)[nH]2)cc1
[3]
  % of control: 92%

## CN(C(=O)c1cnn2cccnc12)c1cc2c(cc1N1CCOCC1)C(=O)N(C[C@@H](F)C(C)(C)O)C2
[4]
  dTM: 1.7 K

## Nc1cnc(N2CCc3cc(S(=O)(=O)Nc4c(F)cc(Cl)cc4F)cc(N4CCCC4=O)c32)nc1 [TP-020n]
[5]
  % of control: 94%

## CC(=O)Nc1cccc(-n2c(=O)n(C3CC3)c(=O)c3c(Nc4ccc(I)cc4F)n(C)c(=O)c(C)c32)c1
[6]
  % of control: 98%

## Cc1cc([C@@H](C)Nc2ccccc2C(=O)O)c2nc(N3CCOCC3)cc(=O)n2c1 [AZD-6482]
[7]
  % of control: 100%

## Cn1cc(-n2cnc3c(NCc4nc5cc(Cl)c(Cl)cc5[nH]4)nc(N4CCOCC4)nc32)cn1
[8]
  % of control: 1.47%

## CNC(=O)Nc1ccc(-c2nc(N3CC4CCC(C3)O4)c3cnn(C4CCC5(CC4)OCCO5)c3n2)cc1
[9]
  % of control: 100%
[10]
  % of control: 87%

## COc1cc(Nc2nc(C)cc(-c3cnn4nc(OC)ccc34)n2)cc(C(F)(F)F)c1
[11]
  % of control: 54%

## COCC(=O)NC/C=C/c1ccc2ncnc(Nc3ccc(Oc4ccc(C)nc4)c(C)c3)c2c1 [CP-724714]
[12]
  % of control: 90%
[13]
  % of control: 100%

## C=CC(=O)Nc1cc(-n2c(=O)ccc3cnc4ccc(-c5ccc(NS(C)(=O)=O)cc5)cc4c32)ccc1C
[14]; at 1 µM
  % of control: 98%
[14]; at 10 µM
  % of control: 69%

## CN1Cc2nccc(-c3cn(C)nc3-c3ccc(F)cc3)c2C1=O
[15]
  % of inhibition: -3%
